Assay results: paper PMC12786078, “Identification of Novel JAK2 Inhibitors from Amino Derivatives of Epoxyalantolactone: In Silico and In Vitro Studies” (International Journal of Molecular Sciences, 2025)
Where “and” joins values, the source holds several entries; their conditions need not be identical. Identical values can stand only once. Like-named read-outs stand apart in the source and are kept apart here.

Legend:
HeLa cells [1] = experiment: DCFH2-DA intracellular ROS assay; assay type: cell-based, human
Description: After 24 h, the cells were incubated with 100 µL of 10 µM DCFH2-DA (Sigma-Aldrich) diluted in Hank’s Balanced Salt Solution (HBSS) at 37 °C for 30 min in the dark. […] At the end of the treatment, cells were washed twice with cold phosphate-buffered saline (PBS), and 200 µL of 1% Triton X-100 in 0.3 M NaOH was added to lyse the cells.

L929 fibroblasts = experiment: MTT cytotoxicity assay; conditions: read-out: IC50 L929
Description: (§1) Human cervical adenocarcinoma (HeLa), hepatocellular carcinoma (HepG2) and mouse fibroblast (L929) cells were cultured in Dulbecco’s Modified Eagle’s Medium (DMEM) containing 10% fetal bovine serum (FBS), 100 U/mL penicillin G, and 100 μg/mL streptomycin. Human neuroblastoma (SH-SY5Y) cells were maintained in DMEM/F-12 medium with the same supplements. All cultures were incubated at 37 °C in a humidified atmosphere of 5% CO2.
(§2) Cells were seeded in 96-well plates at a density of 5 × 10^3 cells per well in 100 µL of complete DMEM and incubated overnight at 37 °C in a humidified incubator with 5% CO2. […] After 48 h of treatment, 100 µL of MTT solution (0.5 mg/mL in serum-free medium) was added to each well and incubated for an additional 3 h at 37 °C. The supernatant was then removed, and 100 µL of DMSO was added to dissolve the resulting formazan crystals. Absorbance was measured at 570 nm using an EnSight Multimode Microplate Reader (PerkinElmer, Waltham, MA, USA). IC50 values were calculated using nonlinear regression analysis in GraphPad Prism version 9.

[2] = Annexin V-FITC/PI apoptosis detection by flow cytometry; conditions: human, HeLa cells
Description: (§3) HeLa cells were seeded in 6-well plates at a density of 3 × 10^5 cells per well in 2 mL of complete DMEM and allowed to adhere overnight. […] Following treatment, cells were harvested by trypsinization and washed twice with 1 mL of cold phosphate-buffered saline (PBS) to remove non-adherent and dead cells. The cell pellets were resuspended in 100 µL of binding buffer and stained with 5 µL of Annexin V-FITC and 5 µL of propidium iodide (PI, 0.05 µg/mL). The staining was performed in the dark at room temperature for 15 min. Apoptotic cell death was quantified by flow cytometry, with early and late apoptotic populations distinguished based on Annexin V-FITC and PI fluorescence signals.

HeLa cells [3] = experiment: MTT cytotoxicity assay; conditions: 48 h
Description: as §1, §2

HepG2 cells = experiment: MTT cytotoxicity assay; conditions: read-out: IC50 HepG2
Description: as §1, §2

[4] = system: SH-SY5Y neuroblastoma cells; experiment: MTT cytotoxicity assay; conditions: 48 h, read-out: IC50 SH-SY5Y
Description: as §1, §2

HEK-293T cells = experiment: MTT cytotoxicity assay; conditions: read-out: IC50 HEK-293T
Description: as §2

JAK2 = molecular target: T1, JAK2 (Homo sapiens, UniProt O60674); experiment: JAK2 kinase assay (ADP-Glo); assay type: biochemical; conditions: 5 μM ATP, mean ± SEM, read-out: IC50, JAK2 kinase inhibition
T1 construct: purchased Sigma-Aldrich SRP0171
Description: For each reaction, 2.5 ng/μL of JAK2 enzyme (SRP0171, Sigma-Aldrich) was combined with 1 μM of the test compounds or known drugs, 5 μM ATP, and 2 ng/μL of poly(glu·tyr) substrate in a reaction buffer containing 40 mM Tris-HCl (pH 7.5), 20 mM MgCl2, and 0.1 mg/mL BSA. The reaction mixture was incubated at room temperature for 1 h. After incubation, 5 μL of the ADP-Glo reagent was added to each reaction, followed by an additional 40 min incubation. Next, 10 μL of the kinase detection reagent was added, and the reactions were incubated at room temperature for 30 min to convert ADP to ATP. Luminescence, reflecting ATP levels, was measured using an EnSight Multimode Microplate Reader. […] All assays were performed in triplicate, and the resulting data were presented as the relative inhibition (%) of inhibitors compared to the control without any inhibitor, as shown in Equation (1).(1) %Relative inhibition=[positive−negative−sample−negative]/(positive−negative)×100

HeLa cells [5] = experiment: Annexin V-FITC/PI apoptosis detection by flow cytometry
Description: as §3

[6] = HeLa, 48 h, at IC50 (SL10 8 µM, SL35 6 µM, ruxolitinib 25 µM)
[7] = IC50 concentration of the compound

T1 sequence (O60674 808-1132 limits assumed): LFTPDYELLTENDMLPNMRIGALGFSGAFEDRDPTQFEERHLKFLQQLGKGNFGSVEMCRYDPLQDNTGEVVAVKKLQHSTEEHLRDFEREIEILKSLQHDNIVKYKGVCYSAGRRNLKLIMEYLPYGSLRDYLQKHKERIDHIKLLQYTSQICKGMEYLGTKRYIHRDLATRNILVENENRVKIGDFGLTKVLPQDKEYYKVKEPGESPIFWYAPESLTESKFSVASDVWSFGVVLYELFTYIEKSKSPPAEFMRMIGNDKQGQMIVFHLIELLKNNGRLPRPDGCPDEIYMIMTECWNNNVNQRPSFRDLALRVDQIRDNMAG

Compound	IC50 (HeLa cells [3]; read-out: IC50 HeLa, MTT)	IC50 (L929 fibroblasts; MTT, 48 h)	IC50 (HepG2 cells; MTT, 48 h)	IC50 ([4]; MTT)	IC50 (JAK2)	IC50 (HEK-293T cells; MTT)	further results
OO [H2O2, hydrogen peroxide, reference compound]	–	–	–	–	–	–	intracellular ROS level relative to control (HeLa cells [1]; 200 µM): approximately 1.7 fold
N#CC[C@H](C1CCCC1)n1cc(-c2ncnc3[nH]ccc23)cn1 [Ruxolitinib, reference compound]	25 ± 1.25 µM	–	–	–	–	–	IC50 (L929 fibroblasts; Mus musculus, L929, 48 h): 80.4 ± 2.33 µM; viability at 48 h, 25 µM [2]: 63.5 ± 2.17%; IC50 (HeLa cells [3]; Homo sapiens, HeLa, read-out: IC50 HeLa, MTT, 48 h): 25 ± 1.3 µM; IC50 (HepG2 cells; Homo sapiens, HepG2, 48 h): 34.6 ± 2.56 µM; IC50 ([4]; Homo sapiens, SH-SY5Y): 68.63 ± 0.19 µM; IC50 (HEK-293T cells; Homo sapiens, HEK-293T): 89.7 ± 1.98 µM
COc1ccc(CN2CC3C(=O)OC4CC5(C)CCCC(C)C5(O)C2C43)cc1OC (stereo not drawn) [SL8]	88.2 µM	92.6 ± 2.87 µM	42.6 ± 2.14 µM	59.6 ± 2.84 µM	0.0871 ± 0.0026 µM	90.7 ± 1.61 µM	–
CC1CCCC2(C)CC3OC(=O)C(CN4CCN(c5ccccc5)CC4)C3C3OC132 (stereo not drawn) [SL10]	8.47 ± 0.74 µM	25.4 µM	19.7 µM	23.1 µM	0.0127 µM	14.5 ± 0.74 µM	early apoptosis (HeLa cells [5]; [6]): 56.39 ± 2.21%; late apoptosis (HeLa cells [5]; [6]): 11.61 ± 0.99%; viable cells (HeLa cells [5]; [6]): 31.30 ± 2.21%; intracellular ROS level relative to control (HeLa cells [1]; [7]): approximately 1.4 fold
CC1CCCC2(C)CC3OC(=O)C(CN4CCN(c5ccc(F)cc5)CC4)C3C3OC132 (stereo not drawn) [SL14]	13.2 µM	52.8 ± 1.92 µM	27.5 ± 0.73 µM	35.8 ± 2.13 µM	0.0576 ± 0.0012 µM	50.9 ± 3.3 µM	–
Cc1cccc(N2CCN(CC3C(=O)OC4CC5(C)CCCC(C)C56OC6C43)CC2)c1 (stereo not drawn) [SL31]	13.7 µM	62.8 ± 3.39 µM	19.62 ± 0.05 µM	24.2 ± 1.69 µM	0.0893 ± 0.0015 µM	24.5 ± 1.12 µM	–
CC1CCCC2(C)CC3OC(=O)C4CN(CCc5c[nH]c6ccccc56)C(C34)C12O (stereo not drawn) [SL33]	33.8 ± 2.8 µM	40.5 ± 2.22 µM	45.28 ± 0.41 µM	58.6 ± 0.71 µM	0.0791 ± 0.0018 µM	29.3 ± 0.96 µM	IC50 (HeLa cells [3]; read-out: IC50 HeLa, MTT, listed as SLL33): 33.8 ± 2.78 µM
CC1CCCC2(C)CC3OC(=O)C(CN4CCN(c5ncccn5)CC4)C3C3OC132 (stereo not drawn) [SL35]	6.07 ± 0.11 µM	23.1 µM	13.3 µM	19.2 µM and 19.3 µM	0.0217 µM and 0.0216 µM	14.6 ± 1.05 µM	viable cells (HeLa cells [5]): 66.19 ± 1.51%; early apoptosis (HeLa cells [5]; [6]): 26.30 ± 1.69%; late apoptosis (HeLa cells [5]; [6]): 5.20 ± 0.34%; intracellular ROS level relative to control (HeLa cells [1]; [7]): around 2.0 fold
O=C1O[C@H]([C@@H](O)CO)C(O)=C1O [Vitamin C, L-ascorbic acid, reference compound]	–	–	–	–	–	–	intracellular ROS level relative to control (HeLa cells [1]; 200 µM): about 0.8 fold
